Measured values taken from patent US20230382863A1, “MEK INHIBITORS AND USES THEREOF” (Ikena Oncology, Inc., priority 2022, published 2023).

Columns and labels:
[1] = tested on: 240 cell lines with known alterations in the MAPK pathway; experiment: MEK inhibitor sensitivity in 240 cell lines (Cell Titer Glo, 5 days); type: cell-based; conditions: cell lines with KRAS, NRAS, BRAF Class I and III mutations, CRAF-alterations
Procedure: 240 cell lines representative of multiple cancer indications with known alterations in the MAPK pathway, including KRAS, NRAS, HRAS, NF1, EGFR, BRAF and CRAF mutations, were seeded overnight in […], then treated with a 9-point dose response of exemplary MEK inhibitors (starting dose of 100 nM and 3-fold dilution) for 5 days. Cell viability was determined using a Cell Titer Glo (CTG) assay. Percent inhibition was calculated for all compounds utilizing staurosporine (1000 nM) treatment as a measure of maximal inhibition. IC50 and area under the curve (AUC) values were determined by fitting a variable slope, four parameters curve to the compound concentration to percent inhibition relationship.

[2] = tested on: HCT-116 xenograft (KRAS G13D); experiment: In vivo efficacy, HCT-116 xenograft model; set-up: species or system mouse; conditions: HCT-116 model, Day 20
Procedure: The antitumor activity of exemplary MEK inhibitor compounds is evaluated in vivo using human cell line derived xenografts (CDX) grown in immunodeficient mice. For these studies, AsPC1 (pancreatic cell line with KRAS G12D mutation), NCI-H2122 (lung cell line with KRAS G12C mutation), and 5637 (bladder cell line with CRAF amplification) models are used. In addition, HCT-116 (colorectal cell line with KRAS G13D mutation), SKM-1 (AML cell line with KRAS K117N mutation), and OCI-AML-3 (AML cell line with NRAS Q61L mutation) models are used. The tumor cell lines (AsPC-1, NCI-H2122, 5637, and HCT-116 cells) are maintained in vitro as monolayer culture in medium at 37° C. in an atmosphere of 5% CO2 in air. The tumor cell lines (SKM-1 and OCI-AML-3 cells) are maintained in vitro as a suspension in medium at 37° C. in an atmosphere of 5% CO2 in air. The tumor cells are routinely sub-cultured before confluence by trypsin-EDTA treatment, not to exceed 4-5 passages. The cells growing in an exponential growth phase are harvested for tumor inoculation. AsPC1, NCI-H2122, and OCI-AML-3 tumors are implanted into Balb/c nude mice. HCT-116 tumors are implanted into Nu/Nu mice. 5637 and SKM-1 tumors are implanted into NOG mice. Each mouse is inoculated subcutaneously on the right flank with tumor cells in a 1:1 mixture with matrigel. Tumors are allowed to grow to approximately 150-200 mm^3. At this time, mice are assigned to groups such that the mean tumor volume is the same for each treatment group. The MEK inhibitor compound treatments are administrated to the tumor-bearing mice via oral gavage. Throughout the study, mouse body weight and tumor volume are recorded. The measurement of tumor size is conducted twice weekly with a caliper and recorded. The tumor volume (mm^3) is estimated using the formula: TV=a×b^2/2, where “a” and “b” are long and short diameters of a tumor, respectively.

[3] = Cassette pharmacokinetics studies in mice; type: in vivo; conditions: male, Balb/c, plasma, Mouse
Summary of the method: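 Male Balb/c mice (3 per route) received cassette doses in 5% DMSO/95% PEG400 at 2 mg/kg IV (1 mg/kg where IV*) or 5 mg/kg PO. Plasma sampled to 24 h, acetonitrile-precipitated with internal standard, quantified by HPLC/MS/MS against 0.5-1,000 ng/mL standards.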

[4] = tested on: ARAF in complex with MEK; experiment: ARAF-MEK stabilization in cells (MEK immunoprecipitation, Western); type: cell-based; conditions: HCT-116 and NCI-H1755 cells, 3 nM, 4 hours; stabilization = >1.5-fold over vehicle
From the text: The stabilization of ARAF, BRAF and CRAF in complex with MEK in MEK immunoprecipitates isolated from cellular lysates. For these studies, HCT-116 (colorectal cell line with KRAS G13D mutation), SKMEL-2 (melanoma cell line with NRAS Q61K mutation), HT-29 (colorectal cell line with BRAF Class I mutation), NCI-H1755 (lung cancer cell line with BRAF Class II mutation), and NCI-H1666 (lung cancer cell line with BRAF Class III mutation) models are used. The tumor cell lines are maintained in vitro as monolayer culture in medium at 37° C. in an atmosphere of 5% CO2 in air. Cell lines are treated with exemplary MEK inhibitors at a concentration of 3 nM for 4 hours. Cells are lysed and MEK is immunoprecipitated from the lysates overnight. Denatured immunoprecipitates are run on SDS-PAGE, transferred to nitrocellulose membranes and associated ARAF, BRAF, or CRAF are detected by Western analysis. Stabilization was defined as >1.5-fold induction of RAF-MEK interaction over vehicle control.

In the case of CNS(=O)(=O)Nc1cccc(Oc2c(C(=O)NC3CC3)c(Nc3ccc(I)cc3F)n(C)c(=O)c2C)c1Cl [Compound I-2, 4-(2-chloro-3-((N-methylsulfamoyl)amino)phenoxy)-N-cyclopropyl-2-((2-fluoro-4-iodophenyl)amino)-1,5-dimethyl-6-oxo-1,6-dihydropyridine-3-carboxamide], the “sensitivity compared to RAS/RAF wild-type cell lines” value [1] is reported as “increased sensitivity”, the “average body weight gain” value ([2]; 2 mg/kg QD) is reported as 4% and the “percent TGI” value ([2]; 2 mg/kg QD) is reported as 102.9%. For the same compound, the “average body weight gain” value ([2]; 3 mg/kg QOD) was 5.5%, the “percent TGI” value ([2]; 3 mg/kg QOD) was 98.1% and the “average body weight gain” value ([2]; 6 mg/kg QOD) was 12.1%. For the same compound, the “percent TGI” value ([2]; 6 mg/kg QOD) was 98%, the AUC(0-inf) ([3]; IV, 2 mg/kg) was 1950 ng·h/mL and the AUC(0-t) ([3]; IV, 2 mg/kg) was 1940 ng·h/mL. For the same compound, the clearance ([3]; IV, 2 mg/kg) was 17.2 mL/min/kg, the half-life ([3]; IV, 2 mg/kg) was 1.04 h and the Vd ([3]; IV, 2 mg/kg, read-out: Vdss) was 1.3 L/kg. It also gave an AUC(0-inf) ([3]; PO, 5 mg/kg) of 4040 ng·h/mL, an AUC(0-t) ([3]; PO, 5 mg/kg) of 3960 ng·h/mL and a Cmax ([3]; PO, 5 mg/kg) of 1660 ng/mL. The Tmax ([3]; PO, 5 mg/kg) was 0.5 h, the half-life ([3]; PO, 5 mg/kg) was 7.99 h and the “association of ARAF with MEK” value [4] was “enhanced”.
